Test results published in publication PMC11842588, “A first-in-class selective inhibitor of ERK1/2 and ERK5 overcomes drug resistance with a single-molecule strategy” (Signal Transduction and Targeted Therapy, 2025).

Legend:
Assay in all cases: Kinase profiling
Type in all cases: biochemical
[1] = target: T1, EphB2(h) (Homo sapiens, UniProt P29323)
T1 construct: purchased Eurofins Cerep SA (KinaseProfiler)
Method: (§1) 380 kinases inhibitory activities of SKLB-D18 were conducted by Eurofins Cerep SA. The result was illustrated by kinase tree (http://www.kinhub.org/kinmap/).

[2] = target: T2, Plk1(h) (Homo sapiens, UniProt P53350)
T2 construct: purchased Eurofins Cerep SA (KinaseProfiler)
Method: as §1

[3] = target: T3, MAP4K3(h) (Homo sapiens, UniProt Q8IVH8)
T3 construct: purchased Eurofins Cerep SA (KinaseProfiler)
Method: as §1

[4] = target: T4, NEK1(h) (Homo sapiens, UniProt Q96PY6)
T4 construct: purchased Eurofins Cerep SA (KinaseProfiler)
Method: as §1

[5] = target: T5, Rsk1(h) (Homo sapiens, UniProt Q15418)
T5 construct: purchased Eurofins Cerep SA (KinaseProfiler)
Method: as §1

[6] = target: T6, TrkA(h) (Homo sapiens, UniProt P04629)
T6 construct: purchased Eurofins Cerep SA (KinaseProfiler)
Method: as §1

[7] = target: T7, Ros(h) (Homo sapiens, UniProt P08922)
T7 construct: purchased Eurofins Cerep SA (KinaseProfiler)
Method: as §1

[8] = target: T8, ALK6(h) (Homo sapiens, UniProt O00238)
T8 construct: purchased Eurofins Cerep SA (KinaseProfiler)
Method: as §1

[9] = target: T9, TTBK1(h) (Homo sapiens, UniProt Q5TCY1)
T9 construct: purchased Eurofins Cerep SA (KinaseProfiler)
Method: as §1

[10] = target: T10, TTK(h) (Homo sapiens, UniProt P33981)
T10 construct: purchased Eurofins Cerep SA (KinaseProfiler)
Method: as §1

[11] = target: T11, DAPK1(h) (Homo sapiens, UniProt P53355)
T11 construct: purchased Eurofins Cerep SA (KinaseProfiler)
Method: as §1

[12] = target: T12, HPK1(h) (Homo sapiens, UniProt Q92918)
T12 construct: purchased Eurofins Cerep SA (KinaseProfiler)
Method: as §1

[13] = target: T13, SIK(h) (Homo sapiens, UniProt P57059)
T13 construct: purchased Eurofins Cerep SA (KinaseProfiler)
Method: as §1

[14] = target: T14, HIPK2(h) (Homo sapiens, UniProt Q9H2X6)
T14 construct: purchased Eurofins Cerep SA (KinaseProfiler)
Method: as §1

[15] = target: T15, PKCη(h) (Homo sapiens, UniProt P24723)
T15 construct: purchased Eurofins Cerep SA (KinaseProfiler)
Method: as §1

[16] = target: T16, PKA(h) (Homo sapiens, UniProt P17612)
T16 construct: purchased Eurofins Cerep SA (KinaseProfiler)
Method: as §1

[17] = target: T17, MKK3(h) (Homo sapiens, UniProt P46734)
T17 construct: purchased Eurofins Cerep SA (KinaseProfiler)
Method: as §1

[18] = target: T18, MRCKγ(h) (Homo sapiens, UniProt Q6DT37)
T18 construct: purchased Eurofins Cerep SA (KinaseProfiler)
Method: as §1

[19] = target: T19, SGK2(h) (Homo sapiens, UniProt Q9HBY8)
T19 construct: purchased Eurofins Cerep SA (KinaseProfiler)
Method: as §1

[20] = target: T20, Fes(h) (Homo sapiens, UniProt P07332)
T20 construct: purchased Eurofins Cerep SA (KinaseProfiler)
Method: as §1

[21] = target: T21, B-Raf(h) (Homo sapiens, UniProt P15056)
T21 construct: purchased Eurofins Cerep SA (KinaseProfiler)
Method: as §1

[22] = target: T22, NEK5(h) (Homo sapiens, UniProt Q6P3R8)
T22 construct: purchased Eurofins Cerep SA (KinaseProfiler)
Method: as §1

[23] = target: T23, CDK6/cyclinD3(h) (Homo sapiens, UniProt Q00534)
T23 construct: purchased Eurofins Cerep SA (KinaseProfiler)
Method: as §1

[24] = target: T24, MYO3B(h) (Homo sapiens, UniProt Q8WXR4)
T24 construct: purchased Eurofins Cerep SA (KinaseProfiler)
Method: as §1

[25] = target: T25, ZAK(h) (Homo sapiens, UniProt Q9NYL2)
T25 construct: purchased Eurofins Cerep SA (KinaseProfiler)
Method: as §1

[26] = target: T26, WNK4(h) (Homo sapiens, UniProt Q96J92)
T26 construct: purchased Eurofins Cerep SA (KinaseProfiler)
Method: as §1

[27] = target: T27, TBK1(h) (Homo sapiens, UniProt Q9UHD2)
T27 construct: purchased Eurofins Cerep SA (KinaseProfiler)
Method: as §1

[28] = target: T28, CK1δ(h) (Homo sapiens, UniProt P48730)
T28 construct: purchased Eurofins Cerep SA (KinaseProfiler)
Method: as §1

[29] = target: T29, CDK2/cyclinA(h) (Homo sapiens, UniProt P24941)
T29 construct: purchased Eurofins Cerep SA (KinaseProfiler)
Method: as §1

[30] = target: T30, COT(h) (Homo sapiens, UniProt P41279)
T30 construct: purchased Eurofins Cerep SA (KinaseProfiler)
Method: as §1

[31] = target: T31, GRK6(h) (Homo sapiens, UniProt P43250)
T31 construct: purchased Eurofins Cerep SA (KinaseProfiler)
Method: as §1

[32] = target: T32, MATK(h) (Homo sapiens, UniProt P42679)
T32 construct: purchased Eurofins Cerep SA (KinaseProfiler)
Method: as §1

[33] = target: T33, MST1(h) (Homo sapiens, UniProt Q13043)
T33 construct: purchased Eurofins Cerep SA (KinaseProfiler)
Method: as §1

[34] = target: T34, ROCK-II(h) (Homo sapiens, UniProt O75116)
T34 construct: purchased Eurofins Cerep SA (KinaseProfiler)
Method: as §1

[35] = target: T35, DRAK2(h) (Homo sapiens, UniProt O94768)
T35 construct: purchased Eurofins Cerep SA (KinaseProfiler)
Method: as §1

[36] = target: T36, CK1γ1(h) (Homo sapiens, UniProt Q9HCP0)
T36 construct: purchased Eurofins Cerep SA (KinaseProfiler)
Method: as §1

[37] = target: T37, Flt1(h) (Homo sapiens, UniProt P17948)
T37 construct: purchased Eurofins Cerep SA (KinaseProfiler)
Method: as §1

[38] = target: T38, MSK1(h) (Homo sapiens, UniProt O75582)
T38 construct: purchased Eurofins Cerep SA (KinaseProfiler)
Method: as §1

[39] = target: T39, STK16(h) (Homo sapiens, UniProt O75716)
T39 construct: purchased Eurofins Cerep SA (KinaseProfiler)
Method: as §1

[40] = target: T40, PRP4(h) (Homo sapiens, UniProt Q13523)
T40 construct: purchased Eurofins Cerep SA (KinaseProfiler)
Method: as §1

[41] = target: T41, IR(h) (Homo sapiens, UniProt P06213)
T41 construct: purchased Eurofins Cerep SA (KinaseProfiler)
Method: as §1

T13 sequence (P57059 whole entry): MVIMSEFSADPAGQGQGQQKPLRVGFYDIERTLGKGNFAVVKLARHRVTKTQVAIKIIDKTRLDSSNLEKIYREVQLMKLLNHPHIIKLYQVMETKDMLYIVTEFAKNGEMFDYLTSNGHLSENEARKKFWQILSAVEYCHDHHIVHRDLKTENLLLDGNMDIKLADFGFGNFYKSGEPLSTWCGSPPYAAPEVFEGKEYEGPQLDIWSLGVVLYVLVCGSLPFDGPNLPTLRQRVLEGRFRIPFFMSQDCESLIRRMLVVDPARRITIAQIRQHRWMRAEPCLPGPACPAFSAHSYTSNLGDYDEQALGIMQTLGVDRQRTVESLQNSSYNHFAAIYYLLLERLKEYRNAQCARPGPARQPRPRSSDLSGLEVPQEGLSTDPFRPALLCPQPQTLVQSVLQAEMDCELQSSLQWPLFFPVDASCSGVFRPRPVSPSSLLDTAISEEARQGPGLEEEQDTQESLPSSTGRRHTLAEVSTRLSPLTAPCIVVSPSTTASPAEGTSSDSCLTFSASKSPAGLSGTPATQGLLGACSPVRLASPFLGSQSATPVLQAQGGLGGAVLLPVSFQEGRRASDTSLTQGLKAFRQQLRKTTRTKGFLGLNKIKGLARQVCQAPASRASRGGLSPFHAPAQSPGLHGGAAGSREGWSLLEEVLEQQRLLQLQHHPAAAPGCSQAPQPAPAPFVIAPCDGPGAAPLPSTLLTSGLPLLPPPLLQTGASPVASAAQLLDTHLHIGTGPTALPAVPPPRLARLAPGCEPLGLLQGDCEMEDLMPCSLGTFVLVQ
T39 sequence (O75716 whole entry): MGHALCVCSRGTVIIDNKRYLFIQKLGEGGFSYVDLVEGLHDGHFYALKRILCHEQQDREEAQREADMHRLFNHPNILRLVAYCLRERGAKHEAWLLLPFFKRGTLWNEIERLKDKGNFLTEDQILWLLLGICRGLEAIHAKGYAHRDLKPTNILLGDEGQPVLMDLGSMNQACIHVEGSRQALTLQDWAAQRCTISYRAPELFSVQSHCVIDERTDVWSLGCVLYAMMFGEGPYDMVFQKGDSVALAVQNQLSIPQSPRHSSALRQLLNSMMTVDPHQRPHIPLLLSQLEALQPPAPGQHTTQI
T37 sequence (P17948 27-1338): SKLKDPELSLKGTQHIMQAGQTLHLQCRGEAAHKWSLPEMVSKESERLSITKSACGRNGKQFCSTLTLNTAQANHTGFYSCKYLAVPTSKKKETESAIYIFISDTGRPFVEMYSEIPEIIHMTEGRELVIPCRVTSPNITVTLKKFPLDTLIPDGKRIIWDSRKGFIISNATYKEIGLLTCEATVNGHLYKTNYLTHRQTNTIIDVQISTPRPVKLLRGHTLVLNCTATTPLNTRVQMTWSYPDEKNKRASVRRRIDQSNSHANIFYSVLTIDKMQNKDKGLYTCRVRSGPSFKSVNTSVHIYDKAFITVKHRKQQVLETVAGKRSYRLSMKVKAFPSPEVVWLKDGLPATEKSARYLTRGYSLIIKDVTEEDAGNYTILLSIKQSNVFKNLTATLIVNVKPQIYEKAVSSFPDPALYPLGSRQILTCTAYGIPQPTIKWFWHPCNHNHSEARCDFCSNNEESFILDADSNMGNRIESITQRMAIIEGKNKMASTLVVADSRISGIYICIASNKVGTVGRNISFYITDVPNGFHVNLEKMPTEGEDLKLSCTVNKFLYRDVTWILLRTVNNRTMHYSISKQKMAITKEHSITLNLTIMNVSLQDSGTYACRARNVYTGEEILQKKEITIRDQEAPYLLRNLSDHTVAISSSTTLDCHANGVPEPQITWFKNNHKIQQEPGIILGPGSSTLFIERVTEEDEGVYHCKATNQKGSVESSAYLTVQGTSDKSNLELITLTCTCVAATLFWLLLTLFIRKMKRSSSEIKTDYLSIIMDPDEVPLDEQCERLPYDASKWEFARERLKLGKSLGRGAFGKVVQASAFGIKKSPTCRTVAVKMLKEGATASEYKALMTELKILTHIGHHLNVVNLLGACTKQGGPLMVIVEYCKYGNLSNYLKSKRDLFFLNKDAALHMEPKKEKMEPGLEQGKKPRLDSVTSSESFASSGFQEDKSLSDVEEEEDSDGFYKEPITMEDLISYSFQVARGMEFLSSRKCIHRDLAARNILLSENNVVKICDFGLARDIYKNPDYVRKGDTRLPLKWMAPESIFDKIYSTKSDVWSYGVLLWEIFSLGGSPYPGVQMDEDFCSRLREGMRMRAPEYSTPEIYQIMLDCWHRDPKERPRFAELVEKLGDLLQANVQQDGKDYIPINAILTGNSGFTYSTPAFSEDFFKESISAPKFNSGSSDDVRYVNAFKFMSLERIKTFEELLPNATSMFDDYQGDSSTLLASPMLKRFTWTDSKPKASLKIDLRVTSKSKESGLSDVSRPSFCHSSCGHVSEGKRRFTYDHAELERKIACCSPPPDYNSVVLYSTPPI
T22 sequence (Q6P3R8 whole entry): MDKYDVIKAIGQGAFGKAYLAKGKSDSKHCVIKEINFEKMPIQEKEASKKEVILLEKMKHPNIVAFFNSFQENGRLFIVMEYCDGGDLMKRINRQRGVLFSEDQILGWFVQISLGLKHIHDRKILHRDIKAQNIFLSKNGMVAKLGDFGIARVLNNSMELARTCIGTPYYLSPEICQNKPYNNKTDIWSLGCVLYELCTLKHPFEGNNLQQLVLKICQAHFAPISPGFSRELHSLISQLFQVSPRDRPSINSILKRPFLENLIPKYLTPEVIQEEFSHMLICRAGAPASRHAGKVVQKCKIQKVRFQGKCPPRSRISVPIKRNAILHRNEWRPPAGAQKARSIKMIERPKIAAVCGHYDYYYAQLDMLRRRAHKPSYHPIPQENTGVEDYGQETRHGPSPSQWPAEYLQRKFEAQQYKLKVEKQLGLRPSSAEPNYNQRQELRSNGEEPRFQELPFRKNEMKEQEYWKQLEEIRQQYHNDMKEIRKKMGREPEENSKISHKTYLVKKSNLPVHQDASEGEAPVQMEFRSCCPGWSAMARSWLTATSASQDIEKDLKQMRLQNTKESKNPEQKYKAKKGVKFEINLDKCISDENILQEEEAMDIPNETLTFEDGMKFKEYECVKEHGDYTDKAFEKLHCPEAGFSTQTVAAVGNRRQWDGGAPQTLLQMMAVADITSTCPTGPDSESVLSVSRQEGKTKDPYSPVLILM
T4 sequence (Q96PY6 whole entry): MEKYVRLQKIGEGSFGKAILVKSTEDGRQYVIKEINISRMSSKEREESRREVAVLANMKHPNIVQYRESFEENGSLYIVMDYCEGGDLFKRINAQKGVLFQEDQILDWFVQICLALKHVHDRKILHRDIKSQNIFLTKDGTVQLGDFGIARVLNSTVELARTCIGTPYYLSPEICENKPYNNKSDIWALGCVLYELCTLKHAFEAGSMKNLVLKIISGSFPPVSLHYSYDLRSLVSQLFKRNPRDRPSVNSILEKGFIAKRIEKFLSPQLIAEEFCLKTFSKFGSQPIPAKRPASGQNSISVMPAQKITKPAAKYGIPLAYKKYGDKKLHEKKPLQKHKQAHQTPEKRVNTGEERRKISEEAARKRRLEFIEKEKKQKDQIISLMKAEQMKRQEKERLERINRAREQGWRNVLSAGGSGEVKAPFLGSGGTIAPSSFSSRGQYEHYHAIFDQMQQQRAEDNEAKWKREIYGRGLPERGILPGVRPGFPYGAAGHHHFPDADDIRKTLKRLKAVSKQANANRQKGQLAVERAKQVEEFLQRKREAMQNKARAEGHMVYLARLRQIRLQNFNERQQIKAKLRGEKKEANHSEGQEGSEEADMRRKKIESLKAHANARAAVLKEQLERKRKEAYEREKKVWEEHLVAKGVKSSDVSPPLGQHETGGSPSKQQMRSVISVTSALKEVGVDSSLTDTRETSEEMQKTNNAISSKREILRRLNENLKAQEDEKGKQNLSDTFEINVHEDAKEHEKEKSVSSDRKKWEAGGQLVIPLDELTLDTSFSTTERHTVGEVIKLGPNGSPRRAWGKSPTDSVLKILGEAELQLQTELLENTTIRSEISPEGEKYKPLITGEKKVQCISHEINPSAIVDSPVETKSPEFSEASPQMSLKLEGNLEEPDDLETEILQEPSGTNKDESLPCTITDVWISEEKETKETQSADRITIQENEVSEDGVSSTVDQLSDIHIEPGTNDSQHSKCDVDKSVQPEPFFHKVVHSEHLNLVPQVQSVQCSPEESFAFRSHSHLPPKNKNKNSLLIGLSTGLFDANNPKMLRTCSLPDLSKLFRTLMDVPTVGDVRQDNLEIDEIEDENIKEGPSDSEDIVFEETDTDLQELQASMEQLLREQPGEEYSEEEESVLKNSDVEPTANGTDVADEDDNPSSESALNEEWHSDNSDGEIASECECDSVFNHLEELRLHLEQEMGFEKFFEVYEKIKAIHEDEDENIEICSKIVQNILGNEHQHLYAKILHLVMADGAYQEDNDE
T33 sequence (Q13043 whole entry): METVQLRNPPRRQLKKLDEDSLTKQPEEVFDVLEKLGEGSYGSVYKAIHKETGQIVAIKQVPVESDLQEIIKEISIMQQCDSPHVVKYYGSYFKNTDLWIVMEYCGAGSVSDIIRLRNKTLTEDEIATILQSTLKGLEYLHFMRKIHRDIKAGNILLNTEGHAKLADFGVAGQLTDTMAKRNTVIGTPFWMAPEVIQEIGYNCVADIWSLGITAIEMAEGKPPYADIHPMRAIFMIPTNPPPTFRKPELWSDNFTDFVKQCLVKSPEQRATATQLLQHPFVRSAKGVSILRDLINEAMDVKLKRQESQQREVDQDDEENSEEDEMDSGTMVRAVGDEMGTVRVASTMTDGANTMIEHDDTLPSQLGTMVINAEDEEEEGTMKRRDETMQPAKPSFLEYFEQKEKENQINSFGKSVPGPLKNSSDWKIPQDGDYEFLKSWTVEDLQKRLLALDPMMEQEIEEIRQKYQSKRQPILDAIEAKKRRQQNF

With `CN(C)Cc1cccc(Nc2ncc(Cl)c(-c3csc(C(=O)NN4CCOCC4)c3)n2)c1` [SKLB-D18, 4-(5-chloro-2-((3-((dimethylamino)methyl)phenyl)amino)pyrimidin-4-yl)-N-morpholinothiophene-2-carboxamide] the inhibition at 1 µM [1] was -1%, the inhibition at 1 µM [2] was -5% and the inhibition at 1 µM [3] was 60%. For the same compound, the inhibition at 1 µM [4] was 48%, the inhibition at 1 µM [5] was 51% and the inhibition at 1 µM [6] was 48%. For the same compound, the inhibition at 1 µM [7] was -4%, the inhibition at 1 µM [8] was 10% and the inhibition at 1 µM [9] was -5%. The inhibition at 1 µM [10] was 34%, the inhibition at 1 µM [11] was 67% and the inhibition at 1 µM [12] was 68%. For the same compound, the inhibition at 1 µM [13] was 26%, the inhibition at 1 µM [14] was 67% and the inhibition at 1 µM [15] was 16%. The inhibition at 1 µM [16] was 19%, the inhibition at 1 µM [17] was 4% and the inhibition at 1 µM [18] was 34%. For the same compound, the inhibition at 1 µM [19] was 11%, the inhibition at 1 µM [20] was 53% and the inhibition at 1 µM [21] was 59%. For the same compound, the inhibition at 1 µM [22] was 68%, the inhibition at 1 µM [23] was 47% and the inhibition at 1 µM [24] was 4%. For the same compound, the inhibition at 1 µM [25] was 5%, the inhibition at 1 µM [26] was 18% and the inhibition at 1 µM [27] was 64%. For the same compound, the inhibition at 1 µM [28] was 16%, the inhibition at 1 µM [29] was 58% and the inhibition at 1 µM [30] was -5%. It also gave an inhibition at 1 µM [31] of 2%, an inhibition at 1 µM [32] of 2% and an inhibition at 1 µM [33] of 45%. The inhibition at 1 µM [34] was 34%, the inhibition at 1 µM [35] was 29% and the inhibition at 1 µM [36] was 16%. The inhibition at 1 µM [37] was 39%, the inhibition at 1 µM [38] was 17% and the inhibition at 1 µM [39] was 85%. The inhibition at 1 µM [40] was 19% and the inhibition at 1 µM [41] was 0%.
